# Measured values from the supplement of paper PMC10307832.
# Compound: O=C(c1cc(Cc2n[nH]c(=O)c3ccccc23)ccc1F)N1CCN(C(=O)C2CC2)CC1 [Olaparib] + N=C(N)NC(=N)NCCc1ccccc1 [Phenformin] (partner 250 µM)
# Experiment: relative viability (nuclei count vs DMSO), 5 days (fraction); higher = more cells survive
# Settings: first compound 0.08 µM
# In short: (§1)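 After 5 days of treatment, lung cancer cells in 1536-well plates were fixed and stained in a single step (final 0.05% Triton X-100, 1% formaldehyde, 1 ug/ml Hoechst) and their nuclei counted on 4× images. Treatment had been applied by pin tool the day after seeding as one drug alone or as a fixed anchor-drug dose with five library-drug doses (not always all listed) in √10 steps. Relative viability is the nuclei count of treated wells divided by that of vehicle wells, and values are medians of duplicate plates.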
row,Cell Line,relative viability
1,HCC-827,0.361
2,HOP-62,0.783
3,LC-2-ad,0.75
4,LCLC-97TM1,0.439
5,LCLC-103H,0.406
6,LK-2,0.661
7,LOU-NH91,0.885
8,LU99A,0.853
9,LXF-289,0.555
10,NCI-H23,0.841
11,NCI-H322M,0.937
12,NCI-H358,0.396
13,NCI-H441,0.824
14,NCI-H460,0.598
15,NCI-H596,0.76

# Same assay, conditions: first compound 0.253 µM
row,Cell Line,relative viability
1,HCC-827,0.372
2,HOP-62,0.644
3,LC-2-ad,0.508
4,LCLC-97TM1,0.414
5,LCLC-103H,0.309
6,LK-2,0.381
7,LOU-NH91,0.663
8,LU99A,0.777
9,LXF-289,0.477
10,NCI-H23,0.714
11,NCI-H322M,0.815
12,NCI-H358,0.325
13,NCI-H441,0.873
14,NCI-H460,0.44
15,NCI-H596,0.732

# Same assay, conditions: first compound 2.53 µM
row,Cell Line,relative viability
1,HCC-827,0.398
2,HOP-62,0.762
3,LC-2-ad,0.533
4,LCLC-97TM1,0.428
5,LCLC-103H,0.36
6,LK-2,0.77
7,LOU-NH91,0.716
8,LU99A,0.666
9,LXF-289,0.547
10,NCI-H23,0.724
11,NCI-H322M,0.81
12,NCI-H358,0.351
13,NCI-H441,0.951
14,NCI-H460,0.443
15,NCI-H596,0.653

# Same assay, conditions: first compound 8 µM
row,Cell Line,relative viability
1,HCC-827,0.35
2,HOP-62,0.478
3,LC-2-ad,0.607
4,LCLC-97TM1,0.429
5,LCLC-103H,0.306
6,LK-2,0.317
7,LOU-NH91,0.769
8,LU99A,0.556
9,LXF-289,0.526
10,NCI-H23,0.609
11,NCI-H322M,0.635
12,NCI-H358,0.327
13,NCI-H441,0.706
14,NCI-H460,0.233
15,NCI-H596,0.66

# Compound: O=C(c1cc(Cc2n[nH]c(=O)c3ccccc23)ccc1F)N1CCN(C(=O)C2CC2)CC1 [Olaparib] + Cc1nc(NC(=O)N2CCC[C@H]2C(N)=O)sc1-c1ccnc(C(C)(C)C(F)(F)F)c1 [Alpelisib] (partner 2 µM)
# Experiment: as above
# Settings: first compound 0.08 µM
# In short: as §1
row,Cell Line,relative viability
1,HCC-827,1.02
2,HOP-62,1.25
3,LC-2-ad,0.893
4,LCLC-97TM1,0.256
5,LCLC-103H,1
6,LK-2,1.07
7,LOU-NH91,0.783
8,LU99A,0.608
9,LXF-289,1.16
10,NCI-H23,0.658
11,NCI-H322M,0.893
12,NCI-H358,0.862
13,NCI-H460,0.62
14,NCI-H596,0.532

# Same assay, conditions: first compound 0.253 µM
row,Cell Line,relative viability
1,HCC-827,0.934
2,HOP-62,0.774
3,LC-2-ad,0.746
4,LCLC-97TM1,0.219
5,LCLC-103H,0.928
6,LK-2,1.03
7,LOU-NH91,0.758
8,LU99A,0.487
9,LXF-289,1.02
10,NCI-H23,0.546
11,NCI-H322M,0.789
12,NCI-H358,0.808
13,NCI-H441,0.541
14,NCI-H460,0.38
15,NCI-H596,0.452

# Same assay, conditions: first compound 2.53 µM
row,Cell Line,relative viability
1,HCC-827,0.828
2,HOP-62,0.754
3,LC-2-ad,0.863
4,LCLC-97TM1,0.271
5,LCLC-103H,1.09
6,LK-2,1.25
7,LOU-NH91,0.745
8,LU99A,0.471
9,LXF-289,1.07
10,NCI-H23,0.539
11,NCI-H322M,0.911
12,NCI-H358,0.868
13,NCI-H441,0.568
14,NCI-H460,0.238
15,NCI-H596,0.551

# Same assay, conditions: first compound 8 µM
row,Cell Line,relative viability
1,HCC-827,0.876
2,HOP-62,0.782
3,LC-2-ad,0.695
4,LCLC-97TM1,0.19
5,LCLC-103H,0.923
6,LK-2,0.945
7,LOU-NH91,0.647
8,LU99A,0.422
9,LXF-289,1.03
10,NCI-H23,0.384
11,NCI-H322M,0.709
12,NCI-H358,0.773
13,NCI-H441,0.487
14,NCI-H460,0.173
15,NCI-H596,0.41

# Compound: O=C(c1cc(Cc2n[nH]c(=O)c3ccccc23)ccc1F)N1CCN(C(=O)C2CC2)CC1 [Olaparib] + CS(=O)(=O)N1CCN(Cc2cc3nc(-c4cccc5[nH]ncc45)nc(N4CCOCC4)c3s2)CC1 [Pictilisib] (partner 1 µM)
# Experiment: as above
# Settings: first compound 0.08 µM
# In short: as §1
row,Cell Line,relative viability
1,HCC-827,0.905
2,HOP-62,0.846
3,LC-2-ad,0.529
4,LCLC-97TM1,0.263
5,LCLC-103H,0.682
6,LK-2,0.752
7,LOU-NH91,0.559
8,LU99A,0.303
9,LXF-289,0.825
10,NCI-H23,0.684
11,NCI-H322M,0.507
12,NCI-H358,0.301
13,NCI-H441,0.676
14,NCI-H460,0.404
15,NCI-H596,0.417

# Same assay, conditions: first compound 0.253 µM
row,Cell Line,relative viability
1,HCC-827,0.781
2,HOP-62,0.601
3,LC-2-ad,0.523
4,LCLC-97TM1,0.233
5,LCLC-103H,0.557
6,LK-2,0.587
7,LOU-NH91,0.524
8,LU99A,0.293
9,LXF-289,0.713
10,NCI-H23,0.365
11,NCI-H322M,0.522
12,NCI-H358,0.311
13,NCI-H441,0.387
14,NCI-H460,0.319
15,NCI-H596,0.381

# Same assay, conditions: first compound 2.53 µM
row,Cell Line,relative viability
1,HCC-827,1.07
2,HOP-62,0.698
3,LC-2-ad,0.491
4,LCLC-97TM1,0.174
5,LCLC-103H,0.53
6,LK-2,0.599
7,LOU-NH91,0.515
8,LU99A,0.3
9,LXF-289,0.729
10,NCI-H23,0.397
11,NCI-H322M,0.521
12,NCI-H358,0.347
13,NCI-H441,0.552
14,NCI-H460,0.342
15,NCI-H596,0.45

# Same assay, conditions: first compound 8 µM
row,Cell Line,relative viability
1,HCC-827,0.95
2,HOP-62,0.464
3,LC-2-ad,0.336
4,LCLC-97TM1,0.152
5,LCLC-103H,0.52
6,LK-2,0.5
7,LOU-NH91,0.503
8,LU99A,0.296
9,LXF-289,0.74
10,NCI-H23,0.292
11,NCI-H322M,0.485
12,NCI-H358,0.312
13,NCI-H441,0.456
14,NCI-H460,0.27
15,NCI-H596,0.394

# Compound: O=C(c1cc(Cc2n[nH]c(=O)c3ccccc23)ccc1F)N1CCN(C(=O)C2CC2)CC1 [Olaparib] + NC(=O)Nc1cc(-c2cccc(F)c2)sc1C(=O)N[C@H]1CCCNC1 [AZD7762] (partner 0.2 µM)
# Experiment: as above
# Settings: first compound 0.08 µM
# In short: as §1
row,Cell Line,relative viability
1,HCC-827,0.259
2,HOP-62,0.43
3,LC-2-ad,0.89
4,LCLC-97TM1,0.294
5,LCLC-103H,0.916
6,LK-2,0.351
7,LOU-NH91,0.838
8,LU99A,0.337
9,LXF-289,1.27
10,NCI-H23,0.3
11,NCI-H322M,0.724
12,NCI-H358,0.574
13,NCI-H441,1.16
14,NCI-H460,0.595
15,NCI-H596,1.19

# Same assay, conditions: first compound 0.253 µM
row,Cell Line,relative viability
1,HCC-827,0.214
2,HOP-62,0.614
3,LC-2-ad,0.76
4,LCLC-97TM1,0.202
5,LCLC-103H,0.773
6,LK-2,0.394
7,LOU-NH91,0.739
8,LU99A,0.213
9,LXF-289,1.02
10,NCI-H23,0.269
11,NCI-H322M,0.608
12,NCI-H358,0.522
13,NCI-H441,1.03
14,NCI-H460,0.513
15,NCI-H596,0.981

# Same assay, conditions: first compound 2.53 µM
row,Cell Line,relative viability
1,HCC-827,0.239
2,HOP-62,0.463
3,LC-2-ad,0.851
4,LCLC-103H,0.727
5,LK-2,0.348
6,LOU-NH91,0.789
7,LU99A,0.204
8,LXF-289,1.28
9,NCI-H23,0.269
10,NCI-H322M,0.521
11,NCI-H358,0.495
12,NCI-H441,1
13,NCI-H460,0.357
14,NCI-H596,1.04

# Same assay, conditions: first compound 8 µM
row,Cell Line,relative viability
1,HCC-827,0.224
2,HOP-62,0.155
3,LC-2-ad,0.727
4,LCLC-97TM1,0.168
5,LCLC-103H,0.56
6,LK-2,0.471
7,LOU-NH91,0.761
8,LU99A,0.125
9,LXF-289,1.17
10,NCI-H23,0.147
11,NCI-H322M,0.496
12,NCI-H358,0.382
13,NCI-H441,0.446
14,NCI-H460,0.126
15,NCI-H596,0.703

# Compound: O=C(c1cc(Cc2n[nH]c(=O)c3ccccc23)ccc1F)N1CCN(C(=O)C2CC2)CC1 [Olaparib] + C[C@@H](Oc1cc(-c2cnn(C3CCNCC3)c2)cnc1N)c1c(Cl)ccc(F)c1Cl [Crizotinib] (partner 1 µM)
# Experiment: as above
# Settings: first compound 0.08 µM
# In short: as §1
row,Cell Line,relative viability
1,HCC-827,0.941
2,HOP-62,1.07
3,LC-2-ad,0.368
4,LCLC-97TM1,0.409
5,LCLC-103H,1.15
6,LK-2,0.177
7,LOU-NH91,0.785
8,LU99A,0.522
9,LXF-289,0.907
10,NCI-H23,0.673
11,NCI-H322M,1.03
12,NCI-H358,0.606
13,NCI-H441,0.677
14,NCI-H460,0.875
15,NCI-H596,0.736

# Same assay, conditions: first compound 0.253 µM
row,Cell Line,relative viability
1,HCC-827,0.908
2,HOP-62,0.902
3,LC-2-ad,0.388
4,LCLC-97TM1,0.35
5,LCLC-103H,1.04
6,LK-2,0.181
7,LOU-NH91,0.71
8,LU99A,0.495
9,LXF-289,0.799
10,NCI-H23,0.444
11,NCI-H322M,0.803
12,NCI-H358,0.541
13,NCI-H441,0.634
14,NCI-H460,0.744
15,NCI-H596,0.866

# Same assay, conditions: first compound 2.53 µM
row,Cell Line,relative viability
1,HCC-827,0.949
2,HOP-62,0.792
3,LC-2-ad,0.472
4,LCLC-97TM1,0.365
5,LCLC-103H,1.04
6,LK-2,0.192
7,LOU-NH91,0.721
8,LU99A,0.427
9,LXF-289,0.889
10,NCI-H23,0.492
11,NCI-H322M,0.994
12,NCI-H358,0.651
13,NCI-H441,0.733
14,NCI-H460,0.502
15,NCI-H596,1.02

# Same assay, conditions: first compound 8 µM
row,Cell Line,relative viability
1,HCC-827,0.814
2,HOP-62,0.631
3,LC-2-ad,0.406
4,LCLC-97TM1,0.305
5,LCLC-103H,0.985
6,LK-2,0.186
7,LOU-NH91,0.744
8,LU99A,0.42
9,LXF-289,0.875
10,NCI-H23,0.274
11,NCI-H322M,0.902
12,NCI-H358,0.518
13,NCI-H441,0.719
14,NCI-H460,0.17
15,NCI-H596,0.833
